ChEMBL document CHEMBL1201862, “PubChem BioAssay data set” (2004)
Several values for one entry are separate records, joined by “and”; a condition that tells them apart may be missing. Equal entries are not always repeated.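 Cultured in 96-well plates, cells were exposed to test compound for 48 hours across five concentrations. GI50: concentration for 50% inhibition of growth.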 Activity calls are given as the source filed them. Cut-off read from the data, not from the text of the source: active = GI50 up to about 1.1 µM and inactive = higher.

Assays:
Test in all cases: NCI-60 cell line screen, 48 h
[1] = test system: UO-31
[2] = test system: NCI-H522
[3] = test system: SF-539
[4] = test system: UACC-257
[5] = test system: SF-268
[6] = test system: ACHN
[7] = test system: SN12C
[8] = test system: CCRF-CEM
[9] = test system: HOP-62
[10] = test system: MOLT-4
[11] = test system: SK-MEL-5
[12] = test system: OVCAR-3
[13] = test system: KM12
[14] = test system: NCI-H23
[15] = test system: COLO 205
[16] = test system: UACC-62
[17] = test system: HL-60
[18] = test system: RXF 393
[19] = test system: K562

Measured: GI50

CC1(C)CC2=C(SC3C=CC=CC3N2)C(=O)C1C(=O)C(N)=O (stereo not given)
inactive: [1] 54.5 µM | [2] 72.3 µM | [3] > 100 µM | [4] > 100 µM | [5] > 100 µM | [6] > 100 µM | [7] > 100 µM | [8] > 100 µM | [9] > 100 µM | [10] 40.4 µM | [11] > 100 µM | [12] > 100 µM | [13] > 100 µM | [14] > 100 µM | [15] > 100 µM | [16] > 100 µM | [17] 44.1 µM

COc1cnc2cc(C(=O)O)c3c([N+](=O)[O-])cccc3c2c1
inactive: [1] > 100 µM | [2] > 100 µM | [4] > 100 µM | [18] > 100 µM | [19] > 100 µM | [5] > 100 µM | [6] > 100 µM | [7] > 100 µM | [8] > 100 µM | [9] > 100 µM | [10] > 100 µM | [11] > 100 µM | [12] > 100 µM | [13] > 100 µM | [14] > 100 µM | [15] > 100 µM | [16] > 100 µM | [17] > 100 µM

CC(C)[Si](OC1=CCC[C@H]2NC(=O)[C@@H](Cc3ccc([N+](=O)[O-])cc3)[C@@]12C)(C(C)C)C(C)C
inactive: [1] 13.4 µM | [2] 4.95 µM | [3] 2.42 µM | [4] 5.47 µM | [18] 2.15 µM | [19] 3.06 µM | [5] 7.52 µM | [6] 1.49 µM | [7] 2.02 µM | [8] 2.86 µM | [9] 4.3 µM | [10] 3.72 µM | [11] 2.3 µM | [12] 4.34 µM | [13] 3.73 µM | [14] 5.53 µM | [15] 3.98 µM | [16] 14.2 µM | [17] 3.44 µM

O=c1[nH]c(=O)n(C2CC(O)C(CO)O2)cc1C#Cc1cc(F)cc(F)c1 (stereo not given)
inactive: [1] > 100 µM | [2] > 100 µM | [3] > 100 µM | [4] > 100 µM | [19] > 100 µM | [5] > 100 µM | [6] > 100 µM | [7] > 100 µM | [8] > 100 µM | [9] > 100 µM | [10] > 100 µM | [11] > 100 µM | [12] > 100 µM | [13] > 100 µM | [14] > 100 µM | [15] > 100 µM | [16] > 100 µM

C=C(C)[C@H]1CC23C(=O)C(C(=O)C(C)C)=C(O)[C@](C)(C[C@H]2C1(C)C)C3=O [LALIBINONE B]
inactive: [1] 18.3 µM | [2] 16.5 µM | [4] 24 µM | [18] 12.9 µM | [19] 20.5 µM | [5] 18.1 µM | [6] 16.6 µM | [7] 17 µM | [8] 8.3 µM | [9] 15.6 µM | [10] 3.72 µM | [11] 17.7 µM | [12] 16.1 µM | [13] 19.6 µM | [14] 18.9 µM | [15] 11.1 µM | [16] 16.3 µM | [17] 15.2 µM

Cc1cc(C)c(N)c(CO)c1
inactive: [1] > 100 µM and 97.1 µM | [3] > 100 µM | [4] 45.3 µM and 58.5 µM | [19] 59.8 µM and 67.5 µM | [5] > 100 µM | [6] > 100 µM | [7] > 100 µM | [8] > 100 µM | [9] 38 µM and > 53.5 µM | [10] > 100 µM | [11] > 100 µM | [12] 32.7 µM and 24.4 µM | [13] > 100 µM | [14] > 100 µM | [15] 36.2 µM and 46.7 µM | [16] 22.8 µM and 13.2 µM

CCOC(=O)c1c(SCCO)n(-c2ccccc2)c(=S)n(-c2ccccc2)c1=O
inactive: [1] > 100 µM | [2] > 100 µM | [4] > 100 µM | [19] > 100 µM | [5] > 100 µM | [6] > 100 µM | [7] > 100 µM | [8] > 100 µM | [9] > 100 µM | [10] > 100 µM | [11] > 100 µM | [12] > 100 µM | [13] > 100 µM | [14] > 100 µM | [15] > 100 µM | [16] > 100 µM | [17] > 100 µM

CC(C)CCC[C@@H](C)C1CCC2[C@@H]3CCC4C[C@@H](NS(C)(=O)=O)CC[C@]4(C)C3CC[C@@]21C (stereo not given in full)
inactive: [1] > 100 µM | [2] > 100 µM | [3] > 100 µM | [4] > 100 µM | [18] > 100 µM | [19] > 100 µM | [5] > 100 µM | [7] > 100 µM | [8] > 100 µM | [9] > 100 µM | [10] > 100 µM | [11] > 100 µM | [12] > 100 µM | [13] > 100 µM | [14] > 100 µM | [15] > 100 µM | [16] > 100 µM | [17] > 100 µM
